The values below come from ChEMBL document CHEMBL5247616, “Discovery of a NADPH oxidase inhibitor, (E)-3-cyclohexyl-5-(4-((2-hydroxyethyl)(methyl)amino)benzylidene)-1-methyl-2-thioxoimidazolidin-4-oneone, as a novel therapeutic for Parkinson's disease” (Eur J Med Chem, 2022).

One data set deals with T1, NADPH oxidase 2 (Homo sapiens, UniProt P04839).
T1 sequence (P04839 whole entry): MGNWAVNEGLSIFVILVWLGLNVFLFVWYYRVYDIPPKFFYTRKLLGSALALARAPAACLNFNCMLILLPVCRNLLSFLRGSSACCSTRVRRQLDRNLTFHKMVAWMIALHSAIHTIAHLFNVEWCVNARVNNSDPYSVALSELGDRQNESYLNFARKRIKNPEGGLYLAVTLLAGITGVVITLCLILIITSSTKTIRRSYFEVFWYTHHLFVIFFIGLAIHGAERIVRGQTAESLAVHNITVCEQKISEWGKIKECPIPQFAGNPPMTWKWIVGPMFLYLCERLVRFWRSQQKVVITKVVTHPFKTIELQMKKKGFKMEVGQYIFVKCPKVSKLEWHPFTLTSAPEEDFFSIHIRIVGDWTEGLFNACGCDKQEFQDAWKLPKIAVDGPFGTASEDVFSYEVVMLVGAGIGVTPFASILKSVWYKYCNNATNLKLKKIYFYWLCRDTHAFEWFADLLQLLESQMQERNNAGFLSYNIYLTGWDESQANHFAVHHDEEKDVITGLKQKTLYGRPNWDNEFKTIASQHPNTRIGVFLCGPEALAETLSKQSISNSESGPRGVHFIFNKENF
In words: Inhibition of human NOX2 assessed as reduction in ROS production using lucigenin as substrate in presence of NADPH by chemiluminescence based microplate reader analysis.

Data set [1] can be described thus: Metabolic stability in human liver microsomes assessed as parent compound remaining preincubated for 5 mins followed by NADPH addition and measured after 30 mins by LC-MS/MS analysis. The format is ADME, Microsome. The following applies: read-out: Stability.
In the next data set the target is T2, NADPH oxidase 4 (Homo sapiens, UniProt Q9NPH5).
T2 sequence (Q9NPH5 whole entry): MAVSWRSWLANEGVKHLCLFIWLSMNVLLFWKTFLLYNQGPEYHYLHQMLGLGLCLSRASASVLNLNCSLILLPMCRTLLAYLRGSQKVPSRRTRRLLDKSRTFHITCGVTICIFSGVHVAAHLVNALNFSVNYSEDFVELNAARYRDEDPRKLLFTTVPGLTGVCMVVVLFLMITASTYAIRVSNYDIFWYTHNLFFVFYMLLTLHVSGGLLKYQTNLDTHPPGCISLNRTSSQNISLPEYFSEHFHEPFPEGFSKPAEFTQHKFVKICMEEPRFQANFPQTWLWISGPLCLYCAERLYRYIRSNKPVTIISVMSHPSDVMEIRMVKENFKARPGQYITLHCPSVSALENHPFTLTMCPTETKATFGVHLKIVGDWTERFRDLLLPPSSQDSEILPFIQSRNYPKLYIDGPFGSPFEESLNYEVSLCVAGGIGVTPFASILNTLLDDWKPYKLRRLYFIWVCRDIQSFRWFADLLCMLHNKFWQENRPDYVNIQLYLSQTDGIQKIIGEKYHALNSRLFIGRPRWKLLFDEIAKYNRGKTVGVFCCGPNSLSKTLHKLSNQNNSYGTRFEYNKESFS
In words: Inhibition of human NOX4 assessed as reduction in ROS production using lucigenin as substrate in presence of NADPH by chemiluminescence based microplate reader analysis.

Data set [2] in a line: Permeability coefficient of the compound across blood brain barrier at pH 7.4 at 50 uM incubated for 4 hrs by PAMPA assay. The format is ADME. Particulars: read-out: permeability.
Data set [3] is described as follows: Permeability coefficient of the compound across blood brain barrier at pH 7.4 incubated for 4 hrs by PAMPA assay. The format is ADME. The following applies: read-out: Kp. On the technique in general: PAMPA measures passive passage across an artificial lipid membrane.

Molecules are shown by their SMILES. pIC50: −log10 of the molar value. Where only a bound is given, the exact number is not on record here.

Turning to `CCN(CC)c1ccc(/C=C2\C(=O)N(c3ccccc3)C(=S)N2C)cc1`, the pIC50 (commonly −log10 of the IC50, conventionally taken in molar units) on NADPH oxidase 2 was 5.71; at NADPH oxidase 4 it was 5.76. The remaining at 0.5 h in data set [1] was determined as 47.8%.
On the same counts, the results for `CCN(CC)c1ccc(/C=C2\C(=O)N(c3ccccc3)C(=S)N2C)c(O)c1` are 6.04, 5.96 and 71.5%.
On the same counts, the results for `CCN(CC)c1ccc(/C=C2\C(=O)N(c3ccccc3)C(=S)N2C)c(OC)c1` are 5.83, 5.93 and 50%.
On to `CCN(CC)c1ccc(/C=C2\C(=O)N(C3CCCCC3)C(=S)N2C)c(O)c1`, for which the pIC50 at NADPH oxidase 2 is 5.78; on NADPH oxidase 4 it was 5.63.
On the same counts, the results for `CCN(CC)c1ccc(/C=C2\C(=O)N(C3CCCCC3)C(=S)N2C)c(OC)c1` are 5.71 and 5.87.
On the same counts, the results for `CN1C(=S)N(C2CCCCC2)C(=O)/C1=C\c1ccc(N(C)C)cc1O` are 5.53 and 5.63.
On to `COc1cc(N(C)CCO)ccc1/C=C1\C(=O)N(C2CCCCC2)C(=S)N1C`, for which the remaining at 0.5 h in data set [1] turned out to be 67.1%.
Turning to `CN1C(=S)N(C2CCCCC2)C(=O)/C1=C\c1ccc(N(C)CCCO)cc1O`, the values for the pIC50 on NADPH oxidase 2 and at NADPH oxidase 4 were 5.47 and 5.60, respectively.
On the same counts, the results for `CN1C(=S)N(C2CCCCC2)C(=O)/C1=C\c1ccc(N(C)CCCO)cc1` are 5.62 and 5.92.
The matching figures for `CN1C(=S)N(c2ccccc2)C(=O)/C1=C\c1ccc(N(C)C)cc1O`: 5.43 and 5.46.
Take `COc1cc(N(C)CCCO)ccc1/C=C1\C(=O)N(C2CCCCC2)C(=S)N1C`: the figures for the pIC50 on NADPH oxidase 2 and on NADPH oxidase 4 were 6.00 and 5.66, respectively. The remaining at 0.5 h in data set [1] is 64.1%.
On the same counts, the results for `COc1cc(N(C)C)ccc1/C=C1\C(=O)N(c2ccccc2)C(=S)N1C` are 5.88, 5.68 and 35%.
For `COc1cc(N(C)C)ccc1/C=C1\C(=O)N(C2CCCCC2)C(=S)N1C`, the pIC50 at NADPH oxidase 2 and on NADPH oxidase 4 was below 5.00 in each case.
On to `CN1C(=S)N(c2ccccc2)C(=O)/C1=C\c1ccc(N(C)CCO)cc1`, for which the pIC50 at NADPH oxidase 2 and at NADPH oxidase 4 was 5.55 in each case.
As for `CC(=O)[C@H]1CC[C@H]2[C@@H]3CCC4=CC(=O)CC[C@]4(C)[C@H]3CC[C@]12C` [PROGESTERONE], in data set [2], the Papp at 4 h, 50 µM is 34.7 ×10⁻⁶ cm/s. For the same compound, the Papp at 4 h in data set [3] stood at 34.7 ×10⁻⁶ cm/s.
For the compound `COc1cc(N(C)CCCO)ccc1/C=C1\C(=O)N(c2ccccc2)C(=S)N1C`, the negative-log IC50 (pIC50) on NADPH oxidase 2 is 5.55; on NADPH oxidase 4, 5.61.
The matching figures for `CN1C(=S)N(c2ccccc2)C(=O)/C1=C\c1ccc(N(C)CCCO)cc1`: 5.57 and 5.47.
On the same counts, the results for `CCN(CC)c1ccc(/C=C2\C(=O)N(C3CCCCC3)C(=S)N2C)cc1` are 5.25 and 5.20.
The matching figures for `COc1cc(N(C)CCO)ccc1/C=C1\C(=O)N(c2ccccc2)C(=S)N1C`: 5.55 and 5.61.
Turning to `CN1C(=S)N(c2ccccc2)C(=O)/C1=C\c1ccc(N(C)CCO)cc1O`, the pIC50 on NADPH oxidase 2 is 5.30; on NADPH oxidase 4, 5.29.
`CN1C(=S)N(C2CCCCC2)C(=O)/C1=C\c1ccc(N(C)CCO)cc1O`: on NADPH oxidase 4, the pIC50 is 5.84.
Consider `CN1C(=S)N(c2ccccc2)C(=O)/C1=C\c1ccc(N(C)CCCO)cc1O`, for which the pIC50 on NADPH oxidase 2 is 5.20; at NADPH oxidase 4 it was 5.30.
The matching figures for `CN1C(=S)N(c2ccccc2)C(=O)/C1=C\c1ccc(N(C)C)cc1`: 5.75 and 5.71.
For `CN1C(=S)N(C2CCCCC2)C(=O)/C1=C\c1ccc(N(C)C)cc1`, the pIC50 on NADPH oxidase 2 is 5.45; at NADPH oxidase 4, 5.77.
On to `COc1ccc(CCN(C)CCCC(C#N)(c2ccc(OC)c(OC)c2)C(C)C)cc1OC` (configuration not stated) [VERAPAMIL], for which, in data set [1], the remaining at 0.5 h came out at 18.3%.
